Experiments:
[1] = tested on: Phakopsora pachyrhizi (F129L); assay: Protective control of soybean rust on soybeans (PHAKPA P6); type: in vivo; settings: for % PHAKPA (F129L) Disease level P6 at 4 ppm: protective P6, 4 ppm; for % PHAKPA (F129L) Disease level P6 at 4 ppm / % PHAKPA (F129L) Disease level P6 at 16 ppm: soybean rust F129L isolate; for % PHAKPA (F129L) Disease level P6 at 16 ppm: protective P6, 16 ppm
[2] = tested on: Phakopsora pachyrhizi (F129L); assay: Protective control of soybean rust on soybeans (PHAKPA P2); type: in vivo; settings: for % PHAKPA (F129L) Disease level P2 at 4 ppm: protective P2, 4 ppm; for % PHAKPA (F129L) Disease level P2 at 4 ppm / % PHAKPA (F129L) Disease level P2 at 16 ppm: soybean rust F129L isolate; for % PHAKPA (F129L) Disease level P2 at 16 ppm: protective P2, 16 ppm

SMILES | % PHAKPA (F129L) Disease level P6 at 4 ppm [1] | % PHAKPA (F129L) Disease level P6 at 16 ppm [1] | % PHAKPA (F129L) Disease level P2 at 4 ppm [2] | % PHAKPA (F129L) Disease level P2 at 16 ppm [2] | PHAKPA (F129L) Disease level (%) P6 at 16 ppm ([1]; protective, inoculation six days after spraying, 16 ppm, % diseased leaf area) | PHAKPA (F129L) Disease level (%) P2 at 16 ppm ([2]; protective, inoculation 2 days after spraying, 16 ppm, % diseased leaf area)
CNC(=O)/C(=N/OC)c1cccc(C)c1CO/N=C(\C)c1cc(Br)cc(F)c1F [compound 241] | 33% | 12% | 3% | 0% |  | 
C#Cc1cc(F)c(F)c(/C(C)=N/OCc2c(C)cccc2/C(=N\OC)C(=O)OC)c1 [compound 242] | 87% | 20% | 87% | 10% |  | 
C#Cc1cc(F)c(F)c(/C(C)=N/OCc2c(C)cccc2/C(=N\OC)C(=O)NC)c1 [compound 243] | 37% | 1% | 4% | 0% |  | 
CO/C=C(/C(=O)OC)c1cccc(C)c1CO/N=C(\C)c1ccccc1C(F)(F)F [compound 244] | 15% | 2% | 14% | 0% | 2% | 0%
CNC(=O)/C(=N/OC)c1cccc(C)c1CO/N=C(\C)c1cc(Cl)ccc1C(F)(F)F [compound 245] | 13% | 2% | 28% | 8% |  | 
CO/N=C(/C(=O)OC)c1cccc(C)c1CO/N=C(\C)c1cc(Cl)c(F)c(Cl)c1 [compound 246] | 77% | 7% | 40% | 15% |  | 
CNC(=O)/C(=N/OC)c1cccc(C)c1CO/N=C(\C)c1cc(Cl)c(F)c(Cl)c1 [compound 247] | 33% | 8% | 16% | 2% |  | 
CNC(=O)/C(=N/OC)c1cccc(C)c1CO/N=C(\C)c1cc(F)ccc1Br [compound 248] | 30% | 2% | 33% | 2% |  | 
CO/N=C(/C(=O)OC)c1cccc(C)c1CO/N=C(\C)c1cc(F)ccc1C(F)(F)F [compound 249] | 90% | 43% | 87% | 37% |  | 
CO/N=C(/C(=O)OC)c1cccc(C)c1CO/N=C(\CC(F)(F)F)c1cccc(C(F)(F)F)c1 [compound 250] | 90% | 80% | 90% | 90% |  | 
CO/N=C(/C(=O)OC)c1cccc(C)c1CO/N=C(\C)c1cc(Cl)ccc1C(F)(F)F [compound 251] | 80% | 80% | 80% | 80% |  | 
CNC(=O)/C(=N/OC)c1cccc(C)c1CO/N=C(\C)c1ccccc1OC(F)F [compound 252] | 87% | 32% | 50% | 3% |  | 
CO/N=C(/C(=O)OC)c1cccc(C)c1CO/N=C(\C)c1ccccc1OC(F)F [compound 253] | 100% | 57% | 100% | 87% |  | 
CO/N=C(/C(=O)OC)c1cccc(C)c1CO/N=C(\C)c1cc(F)ccc1Br [compound 254] | 100% | 100% | 100% | 77% |  | 
CNC(=O)/C(=N/OC)c1cccc(C)c1CO/N=C(\CC(F)(F)F)c1cc(Cl)cc(Cl)c1 [compound 255] | 100% | 87% | 97% | 83% |  | 
CO/N=C(/C(=O)OC)c1cccc(C)c1CO/N=C(\C)c1ccc(F)cc1Cl [compound 256] | 70% | 20% | 50% | 18% |  | 
CO/N=C(/C(=O)OC)c1cccc(C)c1CO/N=C(\C)c1ccc(Br)cc1C(F)(F)F [compound 257] | 100% | 57% | 93% | 35% |  | 
CNC(=O)/C(=N/OC)c1cccc(C)c1CO/N=C(\C)c1ccc(Br)cc1C(F)(F)F [compound 258] | 73% | 8% | 32% | 7% |  | 
